According to patent publication US20130344490A1, “NEOPLASTIC CELLS GROWN ON DECELLULARIZED BIOMATRIX” (priority 2012, published 2013):

How the values were obtained:
[1] = test system: human 1299 cells (NCI-H1299) cultured within rat decellularized biomatrices; assay: Cisplatin treatment of tissue constructs: tumor size and live cells; format: cell-based; conditions: 50 μM Cisplatin from day 4 of culture
Procedure: A simplified, small, closed-system bioreactor was set up in an incubator for lung cell culture on the lung biomatrix (FIG. 1B). A custom-designed 500-mL glass bottle was used with three holes in the cap fitted with a female Luer thread-style panel (Cole-Parmer), one for the pulmonary artery cannula, one for the trachea cannula, and one for circulation of medium from the bottle. Medium was constantly circulated with the help of a Masterflex pump (Cole-Parmer) through a 10-foot length of silicone oxygenator tubing wrapped around a mesh of wire solenoid (Cole-Parmer). The medium was perfused through the pulmonary artery cannula into lungs at a flow rate of 6 mL/min. For controlled flow through the pulmonary artery, it was connected to a three-way stopcock (Smith Medical, Dublin, Ohio). The bottle was filled with 150 mL of complete medium or serum-free medium, which was circulated through the oxygenator tubing to prevent air bubbles. […] Treatment (Tx) with 50 μM Cisplatin was commenced at day 4 of culture, and treated tissue constructs and untreated controls were assessed and compared at days 4, 8, 11, and 14 of culture (FIGS. 11 and 12). […]

[2] = test system: human 1299 cells (NCI-H1299) cultured within rat decellularized biomatrices; assay: Circulating cells in perfusion fluid of treated and untreated lung tissue constructs; format: cell-based; conditions: 50 μM Cisplatin from day 4 of culture, over the observed time period, untreated showed steady increase (FIG. 15)
Procedure: In some embodiments, the analyzing comprises determining the number of cells in the perfusion fluid used to perfuse a tissue construct as described herein. The number of cells in the perfusion fluid, also referred to as the number of circulating cells herein, can be used as an indicator for the metastatic properties of neoplastic cells cultured within the tissue construct. For example, in tissue constructs in which neoplastic cells are cultured within the interstitial space, and perfusion fluid is run through the vascular space, cells found in the perfusion fluid may stem from neoplastic cells that have migrated across the basement membrane separating the interstitial and the vascular space. Since the capability to migrate across the basement membrane and, thus, to enter into the blood stream, is a hallmark feature of metastasizing cancer cells, the ability to migrate across the basement membrane in a tissue construct is a biomarker useful for assessing metastatic capabilities of cells grown in tissue constructs provided herein. […] Treatment (Tx) with 50 μM Cisplatin was commenced at day 4 of culture, and treated tissue constructs and untreated controls were assessed and compared at days 4, 8, 11, and 14 of culture (FIGS. 11 and 12). […]

[3] = test system: MMPs 1, 2, 7, 9, and 10; assay: MMP secretion into perfusion fluid of treated and untreated lung tissue constructs; format: cell-based, human; conditions: 50 μM Cisplatin from day 4 of culture
Text: In some embodiments, the analyzing comprises an assessment of one or more molecules secreted into a perfusion fluid by the cells cultured within the tissue construct. For example, in a lung tissue construct, the analyzing may comprise detecting a protein, peptide, or nucleic acid in a perfusion fluid run through the pulmonary artery. In some embodiments, the secreted factor assessed is a secreted factor associated with cancer, or with a property of neoplastic cells, for example, with the metastatic capabilities of neoplastic cells. Secreted factors associated with cancer are known to those of skill in the art and include factors that are typically secreted by a tumor, such as growth factors and pro-angiogenic factors, as are factors associated with the metastatic capabilities of neoplastic cells. Metastasis-associated factors include, for example, matrix metalloproteases (MMPs, e.g., MMP-1, MMP-2, MMP-3, MMP-9, and MMP-10, as well as other MMPs). Tissue constructs were generated by culturing human 1299 cells, also known as NCI-H1299 or CRL-5803, a human non-small cell lung carcinoma cell line, within rat decellularized biomatrices. Treatment (Tx) with 50 μM Cisplatin was commenced at day 4 of culture, and treated tissue constructs and untreated controls were assessed and compared at days 4, 8, 11, and 14 of culture (FIGS. 11 and 12). […]

[4] = test system: human 1299 cells (NCI-H1299) cultured within rat decellularized biomatrices; assay: Ki-67 and TUNEL staining of treated and untreated lung tissue constructs; format: cell-based; conditions: 50 μM Cisplatin from day 4 of culture; compared with untreated constructs (FIG. 14)
Text: Lobes of same lungs were dissected at day 0 (day of seeding cancer cells onto biomatrix), day 3, day 7, and day 11 or day 14 (or both) in sterile conditions under the culture hood to see the progression of tumor growth. After lobectomy, lung tissues were placed in 70% ethanol and analyzed in the Pathology Core Laboratory at The Methodist Hospital Research Institute. Briefly, the tissues were fixed in 10% formalin overnight, processed, and embedded in paraffin. Embedded tissues were cut into […] slices and mounted on slides, and the paraffin was removed; antigen retrieval was performed with antigen unmasking solution (H-3300; Vector Laboratories, Burlingame, Calif.) in a steamer for 20 minutes. Slides were cooled for 20 minutes at room temperature, washed in PBS, and stained with hematoxylin and eosin, Movat Pentachrome (American MasterTech Scientific, Lodi, Calif.), elastin (VVG kit, Ventana Nexus, Tucson, Ariz.), and other markers following the standard protocol. Stained slides were examined by expert board-certified pathologists, and images were captured using a microscope (Olympus, Center Valley, Pa.). […] Treatment (Tx) with 50 μM Cisplatin was commenced at day 4 of culture, and treated tissue constructs and untreated controls were assessed and compared at days 4, 8, 11, and 14 of culture (FIGS. 11 and 12). […]

With `N.N.[Cl][Pt][Cl]` [Cisplatin] the “percentage of live cells” value ([1]; compared with non-treated constructs (FIG. 13)) was “dramatically decreased”, the Tumor size ([1]; compared with untreated constructs, days 4, 8, 11, 14 (FIG. 13)) was “dramatically decreased” and the “number of circulating cells” value [2] was “gradual decrease over the observed time period after initial rapid release of the circulating cells”. The “Levels of the assessed MMPs at the end of the observation period” value ([3]; end of the observation period (FIG. 16)) was “no detectable levels”, the “Levels of MMPs 1, 2, 7, 9, and 10 in perfusion fluid after start of treatment” value ([3]; untreated gradually increased over time (FIG. 16)) was “levels of all MMPs were diminished” and the Ki-67 expression [4] was “decreased in treated constructs”. For the same molecule, the TUNEL staining [4] was “widespread apoptotic processes”.
